Test results as given in US20240366589A1, “NHE3-BINDING COMPOUNDS AND METHODS FOR INHIBITING PHOSPHATE TRANSPORT” (Ardelyx, Inc., priority 2013, published 2024).

Key:
Rat NHE3 = target: T1, Rat NHE3 (Rattus norvegicus, UniProt P26433); experiment: Cell-based NHE3 activity under prompt conditions (OK cells, BCECF pH recovery), rat NHE3; conditions: prompt conditions
T1 construct: expressed in transfected cells; host or cells: Opossum kidney (OK) cells (ATCC), electroporation
Method in brief: (§1)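 Cells (OK line, electroporated with rat or human NHE3) are washed in NaCl-HEPES pH 7.4, then dye-loaded 30 min at room temperature with 5 μM BCECF-AM in NH4Cl buffer.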

Human NHE3 = target: T2, Human NHE3 (Homo sapiens, UniProt P48764); experiment: Cell-based NHE3 activity under prompt conditions (OK cells, BCECF pH recovery), human NHE3; conditions: prompt conditions
T2 construct: expressed in transfected cells; host or cells: Opossum kidney (OK) cells (ATCC), electroporation
T2 sequence (P48764 26-834): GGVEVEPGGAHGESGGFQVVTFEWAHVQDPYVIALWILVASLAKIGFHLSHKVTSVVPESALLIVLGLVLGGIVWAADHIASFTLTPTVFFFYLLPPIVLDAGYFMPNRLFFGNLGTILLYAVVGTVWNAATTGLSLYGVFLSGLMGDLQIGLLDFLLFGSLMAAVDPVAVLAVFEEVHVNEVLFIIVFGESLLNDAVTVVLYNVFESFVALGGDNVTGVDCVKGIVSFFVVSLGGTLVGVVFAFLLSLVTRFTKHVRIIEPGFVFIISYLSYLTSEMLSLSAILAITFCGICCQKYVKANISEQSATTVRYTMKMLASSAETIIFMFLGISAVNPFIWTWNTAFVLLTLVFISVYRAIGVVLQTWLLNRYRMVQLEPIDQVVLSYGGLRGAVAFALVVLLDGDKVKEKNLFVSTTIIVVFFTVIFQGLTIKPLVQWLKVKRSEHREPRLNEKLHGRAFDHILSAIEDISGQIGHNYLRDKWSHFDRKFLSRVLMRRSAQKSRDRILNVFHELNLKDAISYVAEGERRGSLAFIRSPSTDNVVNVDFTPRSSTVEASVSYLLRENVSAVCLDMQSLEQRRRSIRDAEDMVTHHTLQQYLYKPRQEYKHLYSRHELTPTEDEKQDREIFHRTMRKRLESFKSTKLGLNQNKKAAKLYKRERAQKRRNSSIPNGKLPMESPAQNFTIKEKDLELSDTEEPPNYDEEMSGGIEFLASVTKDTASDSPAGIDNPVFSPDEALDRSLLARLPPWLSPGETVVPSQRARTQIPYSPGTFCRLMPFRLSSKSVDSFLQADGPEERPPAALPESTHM
Method in brief: as §1

[1] = test system: phosphorus and calcium levels in the urine of rats; experiment: Urinary excretion of phosphate and calcium in rats (16 h overnight urine); assay type: in vivo, rat; conditions: rats, oral gavage, 16 h post-dose
[2] = test system: absorption of sodium from the intestinal lumen; experiment: Inhibition of intestinal sodium absorption: urinary sodium (uNa) 16 h after single oral dose in rats; assay type: in vivo, rat; conditions: oral gavage, 16 h post-dose
Method in brief: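 Eight-week-old Sprague-Dawley rats (n=6) given single oral gavage of compound or water vehicle in the late afternoon, then kept in metabolic cages with chow and water ad libitum. Urine collected over 16 h; sodium quantified by ion chromatography and expressed as % of vehicle mean, compared by one-way ANOVA with Dunnett's test.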

[3] = test system: absorption of sodium from the intestinal lumen; experiment: Fecal form score (FFS) 16 h after oral dose in rats; assay type: in vivo, rat; conditions: oral gavage, 16 h post-dose, scale 1-5
Method in brief: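 Eight-week-old Sprague-Dawley rats (n=6) dosed by oral gavage with compound or water vehicle between 4 and 5 PM, then housed in metabolic cages with food and water ad libitum. At 16 h, fecal form scored 1 (normal pellet) to 5 (liquid streams) by two observers; group mean reported.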

T1 sequence (P26433 29-831): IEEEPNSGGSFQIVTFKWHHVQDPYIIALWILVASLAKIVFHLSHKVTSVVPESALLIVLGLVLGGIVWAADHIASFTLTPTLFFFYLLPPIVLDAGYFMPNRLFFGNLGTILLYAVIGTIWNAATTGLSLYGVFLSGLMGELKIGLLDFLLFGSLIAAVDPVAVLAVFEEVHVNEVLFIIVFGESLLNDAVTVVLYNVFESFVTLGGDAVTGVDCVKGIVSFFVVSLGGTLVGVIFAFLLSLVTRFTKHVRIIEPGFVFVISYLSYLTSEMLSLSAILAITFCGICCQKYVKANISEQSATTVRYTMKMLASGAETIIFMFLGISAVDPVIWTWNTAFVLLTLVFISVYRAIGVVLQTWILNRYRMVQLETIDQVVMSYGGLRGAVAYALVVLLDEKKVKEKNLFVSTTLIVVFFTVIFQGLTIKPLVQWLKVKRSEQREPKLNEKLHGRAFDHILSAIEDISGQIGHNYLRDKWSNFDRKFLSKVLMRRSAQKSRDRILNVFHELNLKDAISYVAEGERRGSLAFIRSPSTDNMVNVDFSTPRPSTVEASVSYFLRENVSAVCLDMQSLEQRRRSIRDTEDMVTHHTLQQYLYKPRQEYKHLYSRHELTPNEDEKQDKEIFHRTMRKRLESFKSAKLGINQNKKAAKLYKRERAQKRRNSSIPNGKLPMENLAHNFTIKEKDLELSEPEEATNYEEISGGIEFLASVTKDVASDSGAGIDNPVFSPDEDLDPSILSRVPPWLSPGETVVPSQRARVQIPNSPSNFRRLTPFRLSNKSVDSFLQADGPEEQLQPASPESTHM

Row | Prompt Rat NHE3 pIC50 (Rat NHE3) | Prompt Human NHE3 pIC50 (Human NHE3) | IC50 (Human NHE3; read-out: Prompt Human NHE3 pIC50 (converted)) | SMILES | Urine P % of control ([1]; dose 10 mg/kg) | Urine Na % of control ([2]; dose 10 mg/kg) | Fecal Form Score average ([3]; dose 10 mg/kg) | Urine P % of control ([1]; dose 3 mg/kg) | Urine Na % of control ([2]; dose 3 mg/kg) | Fecal Form Score average ([3]; dose 3 mg/kg) | Urine P % of control ([1]; dose 1 mg/kg) | Urine Na % of control ([2]; dose 1 mg/kg) | Fecal Form Score average ([3]; dose 1 mg/kg)
1 | 5.80 | 5.90 | – | CN1Cc2c(Cl)cc(Cl)cc2[C@H](c2cccc(S(=O)(=O)NCCOCCOCCNC(=O)NCCN(CCNC(=O)NCCOCCOCCNS(=O)(=O)c3cccc([C@@H]4CN(C)Cc5c(Cl)cc(Cl)cc54)c3)C(=O)NCCCCCCCCCCCCNC(=O)N(CCNC(=O)NCCOCCOCCNS(=O)(=O)c3cccc([C@@H]4CN(C)Cc5c(Cl)cc(Cl)cc54)c3)CCNC(=O)NCCOCCOCCNS(=O)(=O)c3cccc([C@@H]4CN(C)Cc5c(Cl)cc(Cl)cc54)c3)c2)C1 [compound 86] | 89% | 87% | 1 | – | – | – | – | – | –
2 | <5.00 | 8.20 | – | O=C(NCCCCNC(=O)NCCOCCOCCNS(=O)(=O)c1ccc(O[C@H]2c3cc(Cl)cc(Cl)c3C[C@@H]2N2CC[C@@H](O)C2)cc1)NCCOCCOCCNS(=O)(=O)c1ccc(O[C@H]2c3cc(Cl)cc(Cl)c3C[C@@H]2N2CC[C@@H](O)C2)cc1 [compound 87] | – | – | – | 29% | 54% | 1 | – | – | –
3 | 7.07 | 7.93 | – | CN1Cc2c(Cl)cc(Cl)cc2[C@H](c2cccc(S(=O)(=O)NCCOCCOCCNC(=O)CCC(N)(CCC(=O)NCCOCCOCCNS(=O)(=O)c3cccc([C@@H]4CN(C)Cc5c(Cl)cc(Cl)cc54)c3)CCC(=O)NCCOCCOCCNS(=O)(=O)c3cccc([C@@H]4CN(C)Cc5c(Cl)cc(Cl)cc54)c3)c2)C1 [compound 88] | 69% | 21% | 5 | 75% | 22% | 3 | 77% | 84% | 1
4 | 7.10 | 7.90 | – | CCC(=O)NC(CCC(=O)NCCOCCOCCOCCNS(=O)(=O)c1cccc([C@@H]2CN(C)Cc3c(Cl)cc(Cl)cc32)c1)(CCC(=O)NCCOCCOCCOCCNS(=O)(=O)c1cccc([C@@H]2CN(C)Cc3c(Cl)cc(Cl)cc32)c1)CCC(=O)NCCOCCOCCOCCNS(=O)(=O)c1cccc([C@@H]2CN(C)Cc3c(Cl)cc(Cl)cc32)c1 [compound 89] | 117% | 49% | 3 | – | – | – | – | – | –
5 | 7.20 | 7.85 | – | CN1Cc2c(Cl)cc(Cl)cc2[C@H](c2cccc(S(=O)(=O)NCCOCCOCCOCCNC(=O)CCC(N)(CCC(=O)NCCOCCOCCOCCNS(=O)(=O)c3cccc([C@@H]4CN(C)Cc5c(Cl)cc(Cl)cc54)c3)CCC(=O)NCCOCCOCCOCCNS(=O)(=O)c3cccc([C@@H]4CN(C)Cc5c(Cl)cc(Cl)cc54)c3)c2)C1 [compound 90] | 20% | 38% | 5 | 58% | 30% | 1 | 65% | 76% | 1
6 | 5.30 | <5.00 | – | CN1Cc2c(Cl)cc(Cl)cc2[C@H](c2cccc(S(=O)(=O)NCCOCCOCCOCCNC(=O)CCC(CCC(=O)NCCOCCOCCOCCNS(=O)(=O)c3cccc([C@@H]4CN(C)Cc5c(Cl)cc(Cl)cc54)c3)(CCC(=O)NCCOCCOCCOCCNS(=O)(=O)c3cccc([C@@H]4CN(C)Cc5c(Cl)cc(Cl)cc54)c3)NC(=O)c3ccc(-c4ccc(Cl)cc4)cc3)c2)C1 [compound 91] | 56% | 77% | 1 | – | – | – | – | – | –
7 | <5.00 | 5.60 | – | CCCCCCCCCCC(=O)NC(CCC(=O)NCCOCCOCCNS(=O)(=O)c1cccc([C@@H]2CN(C)Cc3c(Cl)cc(Cl)cc32)c1)(CCC(=O)NCCOCCOCCNS(=O)(=O)c1cccc([C@@H]2CN(C)Cc3c(Cl)cc(Cl)cc32)c1)CCC(=O)NCCOCCOCCNS(=O)(=O)c1cccc([C@@H]2CN(C)Cc3c(Cl)cc(Cl)cc32)c1 [compound 94] | 66% | 67% | 1 | – | – | – | – | – | –
8 | 6.60 | 7.00 | – | CN1Cc2c(Cl)cc(Cl)cc2[C@H](c2cccc(S(=O)(=O)NCCOCCOCCNC(=O)NCCN(CCNC(=O)NCCOCCOCCNS(=O)(=O)c3cccc([C@@H]4CN(C)Cc5c(Cl)cc(Cl)cc54)c3)C(=O)CCOCCOCCOCCOCCOCCOCCOCCOCCOCCC(=O)N(CCNC(=O)NCCOCCOCCNS(=O)(=O)c3cccc([C@@H]4CN(C)Cc5c(Cl)cc(Cl)cc54)c3)CCNC(=O)NCCOCCOCCNS(=O)(=O)c3cccc([C@@H]4CN(C)Cc5c(Cl)cc(Cl)cc54)c3)c2)C1 [compound 95] | 111% | 38% | 2 | – | – | – | – | – | –
9 | 7.50 | 8.30 | – | CN1Cc2c(Cl)cc(Cl)cc2[C@H](c2cccc(S(=O)(=O)NCCOCCOCCNC(=O)CCC(=O)NCCOCCOCCNS(=O)(=O)c3ccc(O[C@H]4c5ccccc5C[C@@H]4N4CCCCC4)cc3)c2)C1 [compound 96] | 94% | 33% | 1 | – | – | – | – | – | –
10 | 7.60 | 8.50 | – | CN1Cc2c(Cl)cc(Cl)cc2[C@H](c2cccc(S(=O)(=O)NCCOCCOCCNC(=O)COCC(=O)NCCOCCOCCNS(=O)(=O)c3ccc(O[C@H]4c5ccccc5C[C@@H]4N4CCCCC4)cc3)c2)C1 [compound 97] | 78% | 64% | 1 | – | – | – | – | – | –
11 | 8.40 | 8.10 | – | O=C(NCCOCCOCCNS(=O)(=O)c1ccc(O[C@H]2c3ccccc3C[C@@H]2N2CCCCC2)cc1)[C@H](O)[C@@H](O)C(=O)NCCOCCOCCNS(=O)(=O)c1ccc(O[C@H]2c3ccccc3C[C@@H]2N2CCCCC2)cc1 [compound 98] | 88% | 83% | 1 | – | – | – | – | – | –
12 | 8.60 | – | ≥ 10 µM | O=C(NCCCCNC(=O)NCCOCCOCCNS(=O)(=O)c1ccc(O[C@H]2c3ccccc3C[C@@H]2N2CCCC2)cc1)NCCOCCOCCNS(=O)(=O)c1ccc(O[C@H]2c3ccccc3C[C@@H]2N2CCCC2)cc1 [compound 99] | 52% | 41% | 1 | – | – | – | – | – | –
13 | 8.10 | 8.30 | – | O=C(NCCOCCOCCNS(=O)(=O)c1ccc(O[C@H]2c3ccccc3C[C@@H]2N2CCCCC2)cc1)c1ccc(C(=O)NCCOCCOCCNS(=O)(=O)c2ccc(O[C@H]3c4ccccc4C[C@@H]3N3CCCCC3)cc2)cc1 [compound 100] | 68% | 57% | 1 | – | – | – | – | – | –
14 | <5.00 | 8.10 | – | O=C(NCCOCCOCCNS(=O)(=O)c1ccc(O[C@H]2c3ccccc3C[C@@H]2N2CCCCC2)cc1)c1cccc(C(=O)NCCOCCOCCNS(=O)(=O)c2ccc(O[C@H]3c4ccccc4C[C@@H]3N3CCCCC3)cc2)c1 [compound 101] | 81% | 64% | 1 | – | – | – | – | – | –
